What was measured:
Format in all cases: in vivo
Alopecurus myosuroides = assay: Test Example 5: herbicidal effect by foliage application, plastic box (symbol J); settings: 320 g/ha, 3 weeks after application
In short: (§1)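 Herbicide, formulated as an emulsion and diluted in water, is sprayed onto the aerial parts of 14-day seedlings. These were grown at 25° C. to 30° C. in sterilized diluvial soil; effects are graded after 3 weeks.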

Chenopodium album = assay: Test Example 5: herbicidal effect by foliage application, plastic box (symbol O); settings: 320 g/ha, 3 weeks after application
In short: as §1

Leptochloa chinensis = assay: Test Example 3: herbicidal effect by foliage application, Wagner pot (symbol D); settings: application herbicide amount 320 g/ha
In short: (§2)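 Seeds sown in alluvial soil kept under 0.1–0.5 cm water, greenhouse 25–30 °C; 14 d growth. Leaves treated by small sprayer with water-diluted emulsion at a predetermined rate. Effect graded by set scale, 3 weeks.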

Veronica persica = assay: Test Example 5: herbicidal effect by foliage application, plastic box (symbol R); settings: 320 g/ha, 3 weeks after application
In short: as §1

Apera spica-venti = assay: Test Example 5: herbicidal effect by foliage application, plastic box (symbol L); settings: 320 g/ha, 3 weeks after application
In short: as §1

Galium spurium = assay: Test Example 5: herbicidal effect by foliage application, plastic box (symbol Q); settings: 320 g/ha, 3 weeks after application
In short: as §1

Lolium multiflorum Lam. = assay: Test Example 5: herbicidal effect by foliage application, plastic box (symbol K); settings: 320 g/ha, 3 weeks after application
In short: as §1

[1] = system: directly sowed rice plant; assay: Test Example 3: effect on crop by foliage application, Wagner pot (symbol b); settings: application herbicide amount 320 g/ha
In short: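 Greenhouse culture at 25–30 °C of seeded rice, Cyperus difformis, Leptochloa chinensis and Echinochloa crus-galli var. crus-galli, in alluvial soil held under 0.1–0.5 cm of water in a Wagner pot.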

Abutilon theophrasti = assay: Test Example 5: herbicidal effect by foliage application, plastic box (symbol M); settings: 320 g/ha, 3 weeks after application
In short: as §1

Digitaria ciliaris = assay: Test Example 5: herbicidal effect by foliage application, plastic box (symbol F); settings: 320 g/ha, 3 weeks after application
In short: as §1

Monochoria vaginalis [2] = assay: Test Example 1: herbicidal activity, application before weed generation in submerged conditions (symbol C); settings: application herbicide amount 320 g/ha
In short: (§3)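 Application before weed emergence: an aqueous dilution of the emulsion formulation was poured onto the surface of 4 cm-deep floodwater on the day of sowing. Effect was judged after 3 weeks (greenhouse, 25–30 °C).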

[3] = system: Echinochloa oryzacola Vasing.; assay: Test Example 2: herbicidal activity, application during weed generation in submerged conditions (symbol A); settings: Table 23; application herbicide amount 320 g/ha; grade 0-5 by criteria of Test Example 1
In short: (§4)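 Each pot contained alluvial soil under 4 cm of water with seeds of all three weeds sown together. Following growth at 25° C. to 30° C. to the one- to two-leaf stage, the floodwater received diluted emulsion at a predetermined amount; visual assessment followed at 3 weeks.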

Cyperus difformis = assay: Test Example 3: herbicidal effect by foliage application, Wagner pot (symbol E); settings: application herbicide amount 320 g/ha
In short: as §2

Stellaria media = assay: Test Example 5: herbicidal effect by foliage application, plastic box (symbol P); settings: 320 g/ha, 3 weeks after application
In short: as §1

beet = assay: Test Example 5: effect on crop by foliage application, plastic box (symbol f); settings: 320 g/ha, 3 weeks after application
In short: (§5)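 A greenhouse held between 25° C. and 30° C. was used to grow plants sown spot-wise, beneath ~1.5 cm of soil, in boxes of sterilized diluvial soil.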

Scirpus juncoides [4] = assay: Test Example 2: herbicidal activity, application during weed generation in submerged conditions (symbol B); settings: Table 23; application herbicide amount 320 g/ha; grade 0-5 by criteria of Test Example 1
In short: as §4

Setaria viridis = assay: Test Example 5: herbicidal effect by foliage application, plastic box (symbol G); settings: 320 g/ha, 3 weeks after application
In short: as §1

soybean = assay: Test Example 5: effect on crop by foliage application, plastic box (symbol d); settings: 320 g/ha, 3 weeks after application
In short: as §5

Scirpus juncoides [5] = assay: Test Example 1: herbicidal activity, application before weed generation in submerged conditions (symbol B); settings: application herbicide amount 320 g/ha
In short: as §3

corn = assay: Test Example 5: effect on crop by foliage application, plastic box (symbol c); settings: 320 g/ha, 3 weeks after application
In short: as §5

Amaranthus retroflexus = assay: Test Example 5: herbicidal effect by foliage application, plastic box (symbol N); settings: 320 g/ha, 3 weeks after application
In short: as §1

Avena fatua = assay: Test Example 5: herbicidal effect by foliage application, plastic box (symbol I); settings: 320 g/ha, 3 weeks after application
In short: as §1

transplanted rice plant = assay: Test Example 1: effect on crop, application before weed generation in submerged conditions (symbol a); settings: application herbicide amount 320 g/ha
In short: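 Rice at 2.5 leaf stage transplanted into submerged soil (4 cm depth) sown with three weed species; herbicide applied before weed emergence.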

wheat = assay: Test Example 5: effect on crop by foliage application, plastic box (symbol e); settings: 320 g/ha, 3 weeks after application
In short: as §5

[6] = system: Echinochloa crus-galli var. crus-galli; assay: Test Example 3: herbicidal effect by foliage application, Wagner pot (symbol H); settings: application herbicide amount 320 g/ha
In short: as §2

Monochoria vaginalis [7] = assay: Test Example 2: herbicidal activity, application during weed generation in submerged conditions (symbol C); settings: Table 23; application herbicide amount 320 g/ha; grade 0-5 by criteria of Test Example 1
In short: as §4

rapeseed = assay: Test Example 5: effect on crop by foliage application, plastic box (symbol g); settings: 320 g/ha, 3 weeks after application
In short: as §5

rice plant = assay: Test Example 5: effect on crop by foliage application, plastic box (symbol b); settings: 320 g/ha, 3 weeks after application
In short: as §5

[8] = system: Echinochloa crus-galli var. crus-galli; assay: Test Example 5: herbicidal effect by foliage application, plastic box (symbol H); settings: 320 g/ha, 3 weeks after application
In short: as §1

[9] = system: Echinochloa oryzacola Vasing.; assay: Test Example 1: herbicidal activity, application before weed generation in submerged conditions (symbol A); settings: application herbicide amount 320 g/ha
In short: as §3

## COCCON=C(CC1CC(O)=C(c2c(C)cc(Br)cc2C)C1=O)C(C)C (stereo not drawn) [9-018]
Alopecurus myosuroides
  J: Alopecurus myosuroides, herbicidal effect grade: 1 (Herbicidal ratio of 5% or higher and lower than 20%)
Chenopodium album
  O: Chenopodium album, herbicidal effect grade: 0 (Herbicidal ratio of 5% or lower (almost no effect))
Leptochloa chinensis; Table 24
  D (Leptochloa chinensis) herbicidal effect grade: 0 (Herbicidal ratio of 5% or lower (almost no effect))
Veronica persica
  R: Veronica persica, herbicidal effect grade: 0 (Herbicidal ratio of 5% or lower (almost no effect))
Apera spica-venti
  L: Apera spica-venti, herbicidal effect grade: 0 (Herbicidal ratio of 5% or lower (almost no effect))
Galium spurium
  Q: Galium spurium, herbicidal effect grade: 0 (Herbicidal ratio of 5% or lower (almost no effect))
Lolium multiflorum Lam.
  K: Lolium multiflorum Lam., herbicidal effect grade: 1 (Herbicidal ratio of 5% or higher and lower than 20%)
[1]; Table 24
  b (directly sowed rice plant) effect on crop grade: 4 (Herbicidal ratio of 70% or higher and lower than 90%)
Abutilon theophrasti
  M: Abutilon theophrasti, herbicidal effect grade: 0 (Herbicidal ratio of 5% or lower (almost no effect))
Digitaria ciliaris
  F: Digitaria ciliaris, herbicidal effect grade: 0 (Herbicidal ratio of 5% or lower (almost no effect))
Monochoria vaginalis [2]
  C (Monochoria vaginalis) herbicidal effect grade: 0 (Herbicidal ratio of 5% or lower (almost no effect))
[3]
  Herbicidal effect grade, A: Echinochloa oryzacola Vasing.: 1 (Herbicidal ratio of 5% or higher and lower than 20%)
Cyperus difformis; Table 24
  E herbicidal effect grade: 0 (Herbicidal ratio of 5% or lower (almost no effect))
Stellaria media
  P: Stellaria media, herbicidal effect grade: 1 (Herbicidal ratio of 5% or higher and lower than 20%)
beet
  f: beet, effect on crop grade: 0 (Herbicidal ratio of 5% or lower (almost no effect))
Scirpus juncoides [4]
  Herbicidal effect grade, B: Scirpus juncoides: 0 (Herbicidal ratio of 5% or lower (almost no effect))
Setaria viridis
  G: Setaria viridis, herbicidal effect grade: 3 (Herbicidal ratio of 40% or higher and lower than 70%)
soybean
  d: soybean, effect on crop grade: 0 (Herbicidal ratio of 5% or lower (almost no effect))
Scirpus juncoides [5]
  B (Scirpus juncoides) herbicidal effect grade: 0 (Herbicidal ratio of 5% or lower (almost no effect))
corn
  c: corn, effect on crop grade: 3 (Herbicidal ratio of 40% or higher and lower than 70%)
Amaranthus retroflexus
  N: Amaranthus retroflexus, herbicidal effect grade: 0 (Herbicidal ratio of 5% or lower (almost no effect))
Avena fatua
  I: Avena fatua, herbicidal effect grade: 3 (Herbicidal ratio of 40% or higher and lower than 70%)
Transplanted rice plant
  a (transplanted rice plant) effect on crop grade: 2 (Herbicidal ratio of 20% or higher and lower than 40%)
wheat
  e: wheat, effect on crop grade: 0 (Herbicidal ratio of 5% or lower (almost no effect))
[6]; Table 24
  H (Echinochloa crus-galli var. crus-galli) herbicidal effect grade: 2 (Herbicidal ratio of 20% or higher and lower than 40%)
Monochoria vaginalis [7]
  Herbicidal effect grade, C: Monochoria vaginalis: 0 (Herbicidal ratio of 5% or lower (almost no effect))
rapeseed
  g: rapeseed, effect on crop grade: 0 (Herbicidal ratio of 5% or lower (almost no effect))
Rice plant
  b: directly sowed rice plant, effect on crop grade: 3 (Herbicidal ratio of 40% or higher and lower than 70%)
[8]
  H: Echinochloa crus-galli var. crus-galli, herbicidal effect grade: 3 (Herbicidal ratio of 40% or higher and lower than 70%)
[9]
  A (Echinochloa oryzacola Vasing.) herbicidal effect grade: 1 (Herbicidal ratio of 5% or higher and lower than 20%)

## CON=C(C)CC1CC(OC(=O)N2CCOCC2)=C(c2c(C)cc(-c3ccc(Cl)cc3Cl)cc2C)C1=O (stereo not drawn) [6-090]
Alopecurus myosuroides
  J: Alopecurus myosuroides, herbicidal effect (criteria of Test Example 1): 3 (Herbicidal ratio of 40% or higher and lower than 70%)
Chenopodium album
  O: Chenopodium album, herbicidal effect (criteria of Test Example 1): 0 (Herbicidal ratio of 5% or lower (almost no effect))
Leptochloa chinensis
  herbicidal effect on D (Leptochloa chinensis), grade 0-5: 5 (Herbicidal ratio of 90% or more (almost completely withered))
Veronica persica
  R: Veronica persica, herbicidal effect (criteria of Test Example 1): 0 (Herbicidal ratio of 5% or lower (almost no effect))
Apera spica-venti
  L: Apera spica-venti, herbicidal effect (criteria of Test Example 1): 2 (Herbicidal ratio of 20% or higher and lower than 40%)
Galium spurium
  Q: Galium spurium, herbicidal effect (criteria of Test Example 1): 0 (Herbicidal ratio of 5% or lower (almost no effect))
Lolium multiflorum Lam.
  K: Lolium multiflorum Lam., herbicidal effect (criteria of Test Example 1): 4 (Herbicidal ratio of 70% or higher and lower than 90%)
[1]
  effect on crop b (directly sowed rice plant), grade 0-5: 0 (Herbicidal ratio of 5% or lower (almost no effect))
Abutilon theophrasti
  M: Abutilon theophrasti, herbicidal effect (criteria of Test Example 1): 0 (Herbicidal ratio of 5% or lower (almost no effect))
Digitaria ciliaris
  F: Digitaria ciliaris, herbicidal effect (criteria of Test Example 1): 5 (Herbicidal ratio of 90% or more (almost completely withered))
Monochoria vaginalis [2]
  Herbicidal effect grade, C: Monochoria vaginalis: 0 (Herbicidal ratio of 5% or lower (almost no effect))
[3]
  Herbicidal effect grade, A: Echinochloa oryzacola Vasing.: 3 (Herbicidal ratio of 40% or higher and lower than 70%)
Cyperus difformis
  herbicidal effect on E, grade 0-5: 0 (Herbicidal ratio of 5% or lower (almost no effect))
Stellaria media
  P: Stellaria media, herbicidal effect (criteria of Test Example 1): 0 (Herbicidal ratio of 5% or lower (almost no effect))
beet
  f: beet, effect on crop (criteria of Test Example 1): 0 (Herbicidal ratio of 5% or lower (almost no effect))
Scirpus juncoides [4]
  Herbicidal effect grade, B: Scirpus juncoides: 0 (Herbicidal ratio of 5% or lower (almost no effect))
Setaria viridis
  G: Setaria viridis, herbicidal effect (criteria of Test Example 1): 5 (Herbicidal ratio of 90% or more (almost completely withered))
soybean
  d: soybean, effect on crop (criteria of Test Example 1): 0 (Herbicidal ratio of 5% or lower (almost no effect))
Scirpus juncoides [5]
  Herbicidal effect grade, B: Scirpus juncoides: 0 (Herbicidal ratio of 5% or lower (almost no effect))
corn
  c: corn, effect on crop (criteria of Test Example 1): 2 (Herbicidal ratio of 20% or higher and lower than 40%)
Amaranthus retroflexus
  N: Amaranthus retroflexus, herbicidal effect (criteria of Test Example 1): 0 (Herbicidal ratio of 5% or lower (almost no effect))
Avena fatua
  I: Avena fatua, herbicidal effect (criteria of Test Example 1): 4 (Herbicidal ratio of 70% or higher and lower than 90%)
Transplanted rice plant
  Effect grade on crop, a: transplanted rice plant: 0 (Herbicidal ratio of 5% or lower (almost no effect))
wheat
  e: wheat, effect on crop (criteria of Test Example 1): 0 (Herbicidal ratio of 5% or lower (almost no effect))
[6]
  herbicidal effect on H (Echinochloa crus-galli var. crus-galli), grade 0-5: 0 (Herbicidal ratio of 5% or lower (almost no effect))
Monochoria vaginalis [7]
  Herbicidal effect grade, C: Monochoria vaginalis: 0 (Herbicidal ratio of 5% or lower (almost no effect))
rapeseed
  g: rapeseed, effect on crop (criteria of Test Example 1): 4 (Herbicidal ratio of 70% or higher and lower than 90%)
Rice plant
  b: directly sowed rice plant, effect on crop (criteria of Test Example 1): 1 (Herbicidal ratio of 5% or higher and lower than 20%)
[8]
  H: Echinochloa crus-galli var. crus-galli, herbicidal effect (criteria of Test Example 1): 4 (Herbicidal ratio of 70% or higher and lower than 90%)
[9]
  Herbicidal effect grade, A: Echinochloa oryzacola Vasing.: 5 (Herbicidal ratio of 90% or more (almost completely withered))
